Assay results: patent US10435414B2, “Tricyclic PI3K inhibitor compounds and methods of use” (Genentech, Inc., priority 2015, dated 2019)

Target: PI3Kα (alpha) (Homo sapiens (Human), UniProt P42336)
Experiment: p110α (alpha) PI3K binding assay (ADP-Glo lipid kinase reaction, Ki by Morrison equation)
Assay type: biochemical
Conditions: PI3K alpha 0.2 nM, ATP 40 μM, PIP2:3PS 50 μM, 120 min, room temperature; read-out: PI3Kα-(alpha) ATP (Ki) micromolar
Method: PI3K Binding assays are intended for determining the biochemical potency of small molecule PI3K inhibitors. The PI3K lipid kinase reaction is performed in the presence of PIP2:3PS lipid substrate (Promega #V1792) and ATP. Following the termination if the kinase reaction, turnover of ATP to ADP by the phosphorylation of the lipid substrate is detected using the Promega ADP-Glo™ (Promega #V1792) assay. Reactions are carried out using the following conditions:
After 120 minutes of reaction time, the kinase reaction is terminated. Any ATP remaining after the reaction is depleted, leaving only ADP. Then the Kinase Detection Reagent is added to convert ADP to ATP, which is used in a coupled luciferin/luciferase reaction. The luminescent output is measured and is correlated with kinase activity.
All reactions are carried out at room temperature. […] The reaction is started by the addition of 2 μl ATP/MgCl2. The kinase reaction buffer contains 50 mM HEPES, 50 mM NaCl, 3 mM MgCl2, 0.01% BSA, 1% DMSO, and enzyme and substrate concentrations as indicated in the above table. The reaction is stopped by the addition of 10 μL ADP-Glo reagent. Plates are read in a Perkin Elmer Envision system using luminescence mode. 10 point dose response curves are generated for each test compound. Ki values for each compound are determined using the Morrison Equation.

Chain of PI3Kα (alpha) (P42336 whole entry): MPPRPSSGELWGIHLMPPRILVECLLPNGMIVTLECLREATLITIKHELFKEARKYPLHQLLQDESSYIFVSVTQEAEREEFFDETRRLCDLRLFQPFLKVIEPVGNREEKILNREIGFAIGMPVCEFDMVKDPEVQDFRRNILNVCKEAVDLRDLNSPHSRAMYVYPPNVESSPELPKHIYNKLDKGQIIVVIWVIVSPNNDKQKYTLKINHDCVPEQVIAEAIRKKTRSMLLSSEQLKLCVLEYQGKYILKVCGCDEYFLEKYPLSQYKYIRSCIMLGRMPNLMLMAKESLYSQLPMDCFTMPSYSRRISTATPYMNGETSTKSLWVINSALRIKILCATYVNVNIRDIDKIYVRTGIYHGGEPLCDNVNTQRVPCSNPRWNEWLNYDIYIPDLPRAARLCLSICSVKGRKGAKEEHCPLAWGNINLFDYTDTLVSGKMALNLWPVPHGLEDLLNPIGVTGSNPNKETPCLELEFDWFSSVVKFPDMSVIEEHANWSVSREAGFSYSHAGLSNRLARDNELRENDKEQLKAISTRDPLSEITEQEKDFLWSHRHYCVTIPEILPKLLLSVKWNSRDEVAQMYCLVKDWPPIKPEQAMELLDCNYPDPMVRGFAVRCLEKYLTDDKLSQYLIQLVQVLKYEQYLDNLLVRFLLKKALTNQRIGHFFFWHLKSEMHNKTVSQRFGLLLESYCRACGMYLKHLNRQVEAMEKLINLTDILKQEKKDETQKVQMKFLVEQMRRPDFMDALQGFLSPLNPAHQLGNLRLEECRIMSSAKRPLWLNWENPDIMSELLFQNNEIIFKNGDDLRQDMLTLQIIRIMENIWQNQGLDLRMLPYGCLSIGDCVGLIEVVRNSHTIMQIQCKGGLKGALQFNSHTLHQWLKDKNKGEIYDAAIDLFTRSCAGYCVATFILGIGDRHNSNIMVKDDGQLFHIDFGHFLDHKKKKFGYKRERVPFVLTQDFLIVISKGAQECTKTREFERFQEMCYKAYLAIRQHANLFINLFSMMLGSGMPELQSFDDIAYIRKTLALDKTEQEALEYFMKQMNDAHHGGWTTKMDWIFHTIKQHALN
Chain of PI3Kα (alpha) (P27986 whole entry partner): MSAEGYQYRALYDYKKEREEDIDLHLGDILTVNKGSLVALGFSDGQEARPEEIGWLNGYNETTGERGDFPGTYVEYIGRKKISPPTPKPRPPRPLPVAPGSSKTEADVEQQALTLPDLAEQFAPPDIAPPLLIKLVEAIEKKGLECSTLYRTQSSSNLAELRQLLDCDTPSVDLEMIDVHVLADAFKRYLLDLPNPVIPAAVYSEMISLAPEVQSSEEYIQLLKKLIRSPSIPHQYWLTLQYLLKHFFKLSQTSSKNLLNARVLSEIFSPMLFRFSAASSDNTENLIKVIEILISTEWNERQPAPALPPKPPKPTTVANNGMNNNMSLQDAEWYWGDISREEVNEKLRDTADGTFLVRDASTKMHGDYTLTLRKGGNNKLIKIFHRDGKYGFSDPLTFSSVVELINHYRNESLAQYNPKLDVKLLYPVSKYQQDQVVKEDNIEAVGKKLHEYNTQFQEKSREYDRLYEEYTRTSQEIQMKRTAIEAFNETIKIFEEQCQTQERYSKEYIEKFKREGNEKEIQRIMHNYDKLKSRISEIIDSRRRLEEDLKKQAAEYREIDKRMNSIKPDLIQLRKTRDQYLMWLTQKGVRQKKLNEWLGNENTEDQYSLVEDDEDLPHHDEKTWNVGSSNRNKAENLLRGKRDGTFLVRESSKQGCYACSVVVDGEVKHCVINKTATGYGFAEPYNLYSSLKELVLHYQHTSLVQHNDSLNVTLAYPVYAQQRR

Structure (SMILES)	Ki
NC(=O)[C@@H](Oc1cc2c3c(c1)nc(-c1cc(F)c4oc(N)nc4c1)n3CCCCO2)C1CC1 (single isomer, unassigned) [Example 289]	< 0.02 nM
NC(=O)[C@H](Oc1cc2c3c(c1)nc(-c1cc(F)c4oc(N)nc4c1)n3CCCCO2)C1CC1 (single isomer, unassigned) [Example 288]	0.1 nM
NC(=O)[C@H](Oc1cc2c3c(c1)nc(-c1ccc4oc(N)nc4c1)n3CCCCO2)C1CC1 (single isomer, unassigned) [Example 283]	0.104 nM
NC(=O)[C@@H](Oc1cc2c3c(c1)nc(-c1ccc4oc(N)nc4c1)n3CCCCO2)C1CC1 (single isomer, unassigned) [Example 284]	< 0.02 nM
